Patent US8754192B2, “Compositions comprising homogeneously glycosylated erythropoietin” (Sloan-Kettering Institute for Cancer Research, priority 2006, dated 2014)
Values after ≈ are worked out from the molar mass of the structure shown.

Legend:
[1] = Solubility of the peptide product in MeOH; assay type: physicochemical; conditions: fully protected peptide made with pseudoproline/Dmb dipeptides, 'as high as', read-out: solubility (concentration easily achieved)
Source text: To improve the peptide synthesis yields and purities, as well as the solubilities of crude products, we attempted various strategies, including the replacement of the synthesized chlorotrityl resin with commercially available NovaSyn® TGT resin (preloaded with Fmoc-amino acids), the use of Ser/Thr-derived oxazolidines (pseudoprolines) and Dmb (2,4-dimethoxybenzyl)dipeptides, 1, 2, 3 and 4 shown below. While 1, 2 and 4 are available in large scale, 3 had to be prepared from a multistep synthesis. These dipeptides could be incorporated into the growing peptide chain in the same manner as normal amino acids activated by HATU. The synthesis outlined below exploited all the beneficial properties of these strategies and produced […] as determined by LC-MS.

EPO-R = target: T1, EPO-R (Homo sapiens, UniProt P19235); conditions: in vitro; compared to rHuEPO; cited from earlier work
T1 sequence (P19235 25-508): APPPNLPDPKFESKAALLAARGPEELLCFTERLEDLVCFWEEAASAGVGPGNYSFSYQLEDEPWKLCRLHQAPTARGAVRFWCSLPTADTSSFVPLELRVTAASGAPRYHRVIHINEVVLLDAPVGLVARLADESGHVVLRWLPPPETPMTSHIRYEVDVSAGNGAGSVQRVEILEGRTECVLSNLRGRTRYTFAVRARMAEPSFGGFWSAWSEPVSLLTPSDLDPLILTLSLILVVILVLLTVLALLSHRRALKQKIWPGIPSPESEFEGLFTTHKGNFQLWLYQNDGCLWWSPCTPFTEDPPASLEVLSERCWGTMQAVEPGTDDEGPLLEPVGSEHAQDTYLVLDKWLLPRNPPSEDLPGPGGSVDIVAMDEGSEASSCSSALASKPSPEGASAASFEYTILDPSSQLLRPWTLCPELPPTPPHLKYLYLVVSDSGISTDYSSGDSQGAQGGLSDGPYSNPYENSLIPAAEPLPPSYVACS

[2] = compared to rHuEPO; cited from earlier work

In the case of COc1ccc(CN(C(=O)[C@H](CC(=O)OCc2ccc(NC(CC(C)C)=C3C(=O)CC(C)(C)CC3=O)cc2)NC(=O)[C@@H](NC(=O)[C@H](Cc2cn(C(c3ccccc3)(c3ccccc3)c3ccccc3)cn2)NC(=O)[C@H](CC(C)C)NC(=O)[C@H](CCC(=O)NC(c2ccccc2)(c2ccccc2)c2ccccc2)NC(=O)[C@H](CC(C)C)NC(=O)[C@@H]2CCCN2C(=O)[C@H](CCC(=O)OCc2ccc(NC(CC(C)C)=C3C(=O)CC(C)(C)CC3=O)cc2)NC(=O)[C@H](Cc2cn(C(=O)OC(C)(C)C)c3ccccc23)NC(=O)[C@@H]2CCCN2C(=O)[C@H](CCC(=O)NC(c2ccccc2)(c2ccccc2)c2ccccc2)NC(=O)[C@H](COC(C)(C)C)NC(=O)[C@@H]2COC(C)(C)N2C(=O)[C@H](CC(=O)OC(C)(C)C)NC(=O)[C@@H](NC(=O)[C@H](CC(C)C)NC(=O)[C@H](CC(C)C)NC(=O)[C@H](C)NC(=O)[C@@H](N)CCC(=O)NC(c2ccccc2)(c2ccccc2)c2ccccc2)C(C)C)C(C)C)[C@@H](CCCCNC(CC(C)C)=C2C(=O)CC(C)(C)CC2=O)C(=O)N[C@@H](C)C(=O)N[C@H](C(=O)N2[C@H](C(=O)NCC(=O)N[C@@H](CC(C)C)C(=O)N[C@@H](CCCNC(=N)NS(=O)(=O)c3c(C)c(C)c4c(c3C)CC(C)(C)O4)C(=O)N[C@@H](COC(C)(C)C)C(=O)N[C@@H](CC(C)C)C(=O)N3[C@H](C(=O)N[C@H](C(=O)N[C@@H](CC(C)C)C(=O)N[C@@H](CC(C)C)C(=O)N[C@@H](CCCNC(=N)NS(=O)(=O)c4c(C)c(C)c5c(c4C)CC(C)(C)O5)C(=O)N[C@@H](C)C(=O)N[C@@H](CC(C)C)C(=O)NCC(=O)O)[C@@H](C)OC(C)(C)C)[C@@H](C)OC3(C)C)COC2(C)C)C(C)C)c(OC)c1 [EPO(78-113)], the solubility [1] is reported as 4.6 mM (≈ 31.3 mg/mL).
In the case of darbepoetin alfa, the “affinity for the EPO-R” value (EPO-R) is given as “diminished by approximately one-fourth” and the activity in vivo [2] is given as “remained the same”.
